The record followed here is US20250230155A1 (Vanderbilt University, priority 2021, published 2025).

Structures are written as SMILES. Like-named read-outs stand apart in the source and are kept apart here.

The target of this experiment is T1, human mAChR M4 (Homo sapiens, UniProt P08173).
T1 construct: expressed in transfected cells
T1 sequence (P08173 1-479): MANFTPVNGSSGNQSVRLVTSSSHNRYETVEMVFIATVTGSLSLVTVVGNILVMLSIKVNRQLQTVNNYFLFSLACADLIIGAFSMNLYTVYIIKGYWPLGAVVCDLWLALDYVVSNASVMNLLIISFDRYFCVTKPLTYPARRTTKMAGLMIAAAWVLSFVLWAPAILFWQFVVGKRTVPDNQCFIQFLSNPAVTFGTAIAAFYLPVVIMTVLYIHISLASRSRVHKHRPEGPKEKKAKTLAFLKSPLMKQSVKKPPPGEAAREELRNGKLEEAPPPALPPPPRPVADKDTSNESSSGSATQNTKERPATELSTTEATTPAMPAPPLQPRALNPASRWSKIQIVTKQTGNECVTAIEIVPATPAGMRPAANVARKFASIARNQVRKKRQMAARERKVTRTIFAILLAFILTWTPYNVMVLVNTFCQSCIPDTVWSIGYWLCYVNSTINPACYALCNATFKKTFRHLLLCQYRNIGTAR
In words: mAChR M4 cell-based functional assay (calcium mobilization, CHO-K1 hM4-Gqi5 cells). Conditions: for Emax at 30 µM: CHO-K1, % ACh maximum at 30 μM, human M4; for EC50: increase in the EC20 acetylcholine response, CHO-K1 hM4-Gqi5 cells. The essentials:
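CHO-K1 cells stably expressing human M4 with chimeric Gqi5, loaded with Fluo-4 AM; compounds given as 11-point 1:3 curves and calcium flux read on FDSS at 1 Hz. Acetylcholine EC20 added at 144 s, EC80 at 230 s; agonist, PAM (EC20 potentiation) and antagonist (EC80 inhibition) EC50/Emax from four-parameter fits.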

Setting [1] is: positive allosteric modulator activity, read-out: Human M4 EC50.

As to `Cc1cc(C(=O)NCc2nccs2)cnc1N1CCc2ncc(-c3cccnc3F)cc2C1` [compound 175, 6-[3-(2-fluoro-3-pyridyl)-7,8-dihydro-5H-1,6-naphthyridin-6-yl]-5-methyl-N-(thiazol-2-ylmethyl)pyridine-3-carboxamide], the maximum response (Emax) at 30 µM worked out at 89%. Also, the EC50 under setting [1] worked out at 145 nM.
Take `Cc1cc(C(=O)NCc2ccncc2)cnc1N1CCc2ncc(-c3cnn(C)c3)cc2C1` [compound 176, 5-methyl-6-[3-(1-methylpyrazol-4-yl)-7,8-dihydro-5H-1,6-naphthyridin-6-yl]-N-(4-pyridylmethyl)pyridine-3-carboxamide]: the maximal effect (Emax) at 30 µM was found to be 89%. The EC50 under setting [1] was determined as 188 nM.
`Cc1cc(F)ncc1-c1cnc2c(c1)CN(c1ncc(C(=O)NCc3ccncc3)cc1C)CC2` [compound 177, 6-[3-(6-fluoro-4-methyl-3-pyridyl)-7,8-dihydro-5H-1,6-naphthyridin-6-yl]-5-methyl-N-(4-pyridylmethyl)pyridine-3-carboxamide]: the Emax at 30 µM worked out at 91%. In addition, the EC50 under setting [1] stood at 101 nM.
Turning to `Cc1cc(C(=O)NCc2ccncc2)cnc1N1CCc2ncc(-c3cccnc3F)cc2C1` [compound 178, 6-[3-(2-fluoro-3-pyridyl)-7,8-dihydro-5H-1,6-naphthyridin-6-yl]-5-methyl-N-(4-pyridylmethyl)pyridine-3-carboxamide], the Emax at 30 µM worked out at 87%. In addition, the EC50 under setting [1] is 262 nM.
Take `Cc1cnc2c(c1)CN(c1ncc(C#N)cc1C)CC2` [compound 179, 5-methyl-6-(3-methyl-7,8-dihydro-5H-1,6-naphthyridin-6-yl)pyridine-3-carbonitrile]: the Emax (CHO-K1) is 98%. For the same compound, the EC50 (Human M4 EC50, positive allosteric modulator activity) worked out at 100 nM.
For `Cc1cc(C#N)cnc1N1CCc2ncc(Oc3ccccc3F)cc2C1` [compound 180, 6-[3-(2-fluorophenoxy)-7,8-dihydro-5H-1,6-naphthyridin-6-yl]-5-methyl-pyridine-3-carbonitrile], the Emax at 30 µM came to 94%. Further, the EC50 under setting [1] is 96.9 nM.
The matching figures for `Cc1cc(C#N)cnc1N1CCc2ncc(Oc3cccc(F)c3)cc2C1` [compound 181, 6-[3-(3-fluorophenoxy)-7,8-dihydro-5H-1,6-naphthyridin-6-yl]-5-methyl-pyridine-3-carbonitrile]: 90% and 141 nM.
Take `COc1ccc(Oc2cnc3c(c2)CN(c2ncc(C#N)cc2C)CC3)cn1` [compound 182, 6-[3-[(6-methoxy-3-pyridyl)oxy]-7,8-dihydro-5H-1,6-naphthyridin-6-yl]-5-methyl-pyridine-3-carbonitrile]: the Emax at 30 µM stood at 75%. Further, the EC50 under setting [1] is 439 nM.
For `Cc1cc(C#N)cnc1N1CCc2ncc(Oc3ccc4c(cnn4C)c3)cc2C1` [compound 183, 5-methyl-6-[3-(1-methylindazol-5-yl)oxy-7,8-dihydro-5H-1,6-naphthyridin-6-yl]pyridine-3-carbonitrile], the Emax at 30 µM was 91%. The EC50 under setting [1] was found to be 164 nM.
`Cc1nc(C)c(-c2cnc3c(c2)CN(c2ncc(C#N)cc2C)CC3)s1` [compound 184, 6-[3-(2,4-dimethylthiazol-5-yl)-7,8-dihydro-5H-1,6-naphthyridin-6-yl]-5-methyl-pyridine-3-carbonitrile]: the Emax at 30 µM stood at 111%. Under setting [1], the EC50 is 106 nM.
The corresponding values for `Cc1ncc(-c2cnc3c(c2)CN(c2ncc(C#N)cc2C)CC3)s1` [compound 185, 5-methyl-6-[3-(2-methylthiazol-5-yl)-7,8-dihydro-5H-1,6-naphthyridin-6-yl]pyridine-3-carbonitrile] are 101% and 211 nM.
As to `Cc1cc(C#N)cnc1N1CCc2ncc(-c3ccc(C4CC4)nc3)cc2C1` [compound 186, 6-[3-(6-cyclopropyl-3-pyridyl)-7,8-dihydro-5H-1,6-naphthyridin-6-yl]-5-methyl-pyridine-3-carbonitrile], the Emax at 30 µM is 97%. Besides, the EC50 under setting [1] was 318 nM.
